The values below come from ChEMBL document CHEMBL1932973, “5- and 6-membered (thio)lactones are prodrug type carbonic anhydrase inhibitors” (Bioorg Med Chem Lett, 2012).

Assay [1] has as its target T1, Carbonic anhydrase 2 (Homo sapiens, UniProt P00918). As to the kind of experiment: Inhibition of human CA2 pre-incubated for 15 mins to 24 hrs measured after 6 hrs by phenol red-based stopped-flow CO2 hydrase assay.
For assay [2], the target named is T2, Carbonic anhydrase 9 (Homo sapiens, UniProt Q16790). As to the kind of experiment: Inhibition of human CA9 pre-incubated for 15 mins to 24 hrs measured after 6 hrs by phenol red-based stopped-flow CO2 hydrase assay.
The target in assay [3] is T3, Carbonic anhydrase 1 (Homo sapiens, UniProt P00915). Kind of assay: Inhibition of human CA1 pre-incubated for 15 mins to 24 hrs measured after 15 mins by phenol red-based stopped-flow CO2 hydrase assay.
The target in assay [4] is T1, Carbonic anhydrase 2. Kind of assay: Inhibition of human CA2 pre-incubated for 15 mins to 24 hrs measured after 15 mins by phenol red-based stopped-flow CO2 hydrase assay.
In assay [5] the target is T2, Carbonic anhydrase 9. As to the kind of experiment: Inhibition of human CA9 pre-incubated for 15 mins to 24 hrs measured after 15 mins by phenol red-based stopped-flow CO2 hydrase assay.
In assay [6] the target is T3, Carbonic anhydrase 1. Kind of assay: Inhibition of human CA1 pre-incubated for 15 mins to 24 hrs measured after 6 hrs by phenol red-based stopped-flow CO2 hydrase assay.

T3 sequence (P00915 whole entry): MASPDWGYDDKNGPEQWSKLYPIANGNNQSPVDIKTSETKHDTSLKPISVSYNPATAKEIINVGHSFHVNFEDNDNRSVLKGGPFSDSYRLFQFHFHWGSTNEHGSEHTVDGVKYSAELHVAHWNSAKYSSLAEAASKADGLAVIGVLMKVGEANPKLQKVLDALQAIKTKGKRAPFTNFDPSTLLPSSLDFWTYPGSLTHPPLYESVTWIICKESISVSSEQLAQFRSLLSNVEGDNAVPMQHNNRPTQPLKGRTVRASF

For the molecule `O=c1cccco1`, the Ki in assay [1] is greater than 100 µM; in assay [2], 1.6 µM.
Taken in the same sequence, the figures for `S=c1cccco1` were greater than 100 µM and 7.45 µM.
As for `Cc1cc(C)oc(=S)c1`, the inhibition constant Ki was greater than 100 µM in assay [1] and 9.51 µM in assay [2].
Turning to `O=C(O)/C=C/CCO`, the Ki in assay [3] was 8.46 µM; in assay [4], greater than 100 µM; in assay [5] it was 1.15 µM.
On to `CC1CCC(=O)O1` (stereo unspecified), for which the Ki in assay [1] was greater than 100 µM; in assay [2] it was 0.92 µM.
On to `COC1=CC(=O)OC1`, for which the Ki in assay [1] is greater than 100 µM; in assay [2], 3.38 µM.
Molecule `Cc1cc(C)oc(=O)c1` showed a Ki in assay [1] greater than 100 µM.
For `O=C1CCCCO1`, the Ki was greater than 100 µM in assay [1] and 3.66 µM in assay [2].
Turning to `O=C1C=CCCO1`, the inhibition constant Ki was greater than 100 µM in assay [1] and 1.35 µM in assay [2].
With `O=C1C=CCO1` [FURAN-2(5H)-ONE], the inhibitory constant (Ki) in assay [1] is greater than 100 µM.
Take `O=C(O)/C=C/c1ccccc1O` [O-COUMARIC ACID]: the results for the Ki in assay [6] and in assay [2] were 3.4 µM and greater than 100 µM, respectively.

A word on the Ki: it is the equilibrium dissociation constant of an inhibitor or competing ligand from its target. A lower Ki goes with a stronger hold on the target.
